{
  "source": "patent US8071125B2",
  "about": "“Transdermal patch containing isosorbide dinitrate and bisoprolol” (Beijing Kangbeide Pharmaceutical Technology Development …, priority 2005, dated 2011)",
  "origin": "cited, not measured here",
  "system": "Patients with Primary Hypertension",
  "details": "oral administration",
  "data": [
    {"smiles": "CC(C)NCC(O)COc1ccc(COCCOC(C)C)cc1", "note": "(stereo not shown) [Bisoprolol]", "values": [
      {"measurement": "average reduction of the heart rate after the treatment", "value": 15.1, "unit": "%"}
    ]}
  ]
}
